Assay results from patent US7943340B2, “Fungal dipeptidyl peptidase IV (DPPIV) enzyme for reagent use” (priority 2003, dated 2011).

Key:
[1] = target: T1, pkLAP (microsomal LAP from porcine kidney) (Sus scrofa, UniProt P15145); test: Effect of chemical reagents (inhibitors, metallic cations) on LAP activity with Leu-AMC; assay type: biochemical; details: inhibitor 40 μM; Leu-MCA substrate
T1 construct: purchased Sigma; host or cells: porcine kidney
T1 sequence (P15145 1-963): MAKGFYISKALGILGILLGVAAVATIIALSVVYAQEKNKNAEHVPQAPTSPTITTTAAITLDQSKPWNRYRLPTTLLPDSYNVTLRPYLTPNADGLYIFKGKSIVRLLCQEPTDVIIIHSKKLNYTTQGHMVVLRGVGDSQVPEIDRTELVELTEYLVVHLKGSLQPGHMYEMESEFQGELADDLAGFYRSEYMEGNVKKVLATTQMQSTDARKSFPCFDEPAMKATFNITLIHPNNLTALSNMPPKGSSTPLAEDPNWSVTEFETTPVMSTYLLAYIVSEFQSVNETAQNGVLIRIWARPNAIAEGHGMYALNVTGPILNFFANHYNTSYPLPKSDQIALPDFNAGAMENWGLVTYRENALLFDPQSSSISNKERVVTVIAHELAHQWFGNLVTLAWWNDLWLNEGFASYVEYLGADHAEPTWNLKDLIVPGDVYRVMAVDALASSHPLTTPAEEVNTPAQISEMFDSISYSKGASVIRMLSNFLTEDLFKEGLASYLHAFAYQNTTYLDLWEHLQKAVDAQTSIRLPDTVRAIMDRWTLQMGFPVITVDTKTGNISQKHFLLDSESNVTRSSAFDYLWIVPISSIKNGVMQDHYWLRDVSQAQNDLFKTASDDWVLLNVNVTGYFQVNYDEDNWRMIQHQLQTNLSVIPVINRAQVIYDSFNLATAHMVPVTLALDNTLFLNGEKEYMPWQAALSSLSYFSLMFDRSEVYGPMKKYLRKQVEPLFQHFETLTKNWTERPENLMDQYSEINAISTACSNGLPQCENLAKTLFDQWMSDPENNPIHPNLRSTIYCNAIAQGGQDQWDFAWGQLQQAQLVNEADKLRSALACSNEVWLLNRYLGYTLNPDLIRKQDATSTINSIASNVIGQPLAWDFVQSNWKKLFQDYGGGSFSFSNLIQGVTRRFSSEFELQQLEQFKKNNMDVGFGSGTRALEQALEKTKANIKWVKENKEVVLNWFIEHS
Procedure: (§1) Inhibitors and metallic cations were pre-incubated with the enzymes for 15 min at 37° C. Then, Leu-AMC at a 5 mM final concentration was added. After further incubation for 60 min, enzyme activity was measured as described above. The inhibitors and their concentrations tested purified LAPs were: 500 μM amastatin (Bachem), 40 μM benzamidine (Sigma), 500 μM bestatin (Bachem), 5 mM/l mM EDTA (Sigma). 100 μM E-64 (L-trans-epoxysuccinyl-leu-4-guanidinobutylamide) (Bachem), 100 μM leupeptin (Sigma), 5 mM/1 mM ortho-phenanthroline (Sigma), 500 μM p-chloromercuribenzoic acid (Sigma), 100 μM pepstatin A (Sigma), 40 μM PMSF (Sigma), 20 μM TLCK (Roche Diagnostics), and 20 μM TPCK (Roche Diagnostics).

ruLAP1 = ruLAP1 (Trichophyton rubrum, UniProt Q5QHG5); assay type: biochemical; details: inhibitor 40 μM; Leu-MCA substrate
How it was run: (§2)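 Purified LAPs pre-incubated 15 min at 37°C with inhibitors or metal cations, then Leu-AMC (5 mM final) added and activity measured after 60 min. Inhibitor levels: amastatin and bestatin 500 μM, EDTA and o-phenanthroline 5 or 1 mM, E-64, leupeptin and pepstatin A 100 μM, benzamidine and PMSF 40 μM, TLCK and TPCK 20 μM, pCMB 500 μM.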

ruLAP2 = ruLAP2 (Trichophyton rubrum, UniProt Q5QHG6); assay type: biochemical; details: inhibitor 40 μM; Leu-MCA substrate
How it was run: as §2

[2] = test system: all the LAPs tested (ruLAP1, ruLAP2, fuLAP1, fuLAP2, pkLAP); assay type: biochemical; details: Leu-AMC 5 mM; amastatin 500 μM; ortho-phenantroline 1 and 5 mM; others as
How it was run: as §2

fuLAP1 = fuLAP1 (Aspergillus fumigatus, UniProt Q5VJG6); assay type: biochemical; details: inhibitor 40 μM; Leu-MCA substrate
How it was run: as §2

[3] = test system: T. rubrum secreted proteolytic activity; test: Inhibition of T. rubrum secreted proteolytic activity (resorufin-labeled casein); assay type: biochemical, Trichophyton rubrum; details: resorufin-labeled casein as substrate
Procedure: The proteolytic activity was measured using resorufin-labeled casein in phosphate buffer (20 mM; pH 7.4). The reaction mixture contained 0.02% substrate in a total volume of 0.5 ml. After incubation at 37° C., the undigested substrate was precipitated by trichloroacetic add (4% final concentration) and separated from the supernatant by centrifugation. The absorbance at 574 nm of the supernatant was measured after alkalinization by adding 500 μl Tris buffer (500 mM; pH 9.4). For practical purposes, one unit (U) of proteolytic activity was defined as that producing an absorbance of 0.001 per min.
T. rubrum was grown at 30° C. in a medium containing 0.2% soy protein as a sole carbon and nitrogen source. After 14 days of growth, a concomitant clarification of the culture medium was noted and a substantial proteolytic activity (400 U ml^−1) detected using resorufin-labeled casein as substrate. This proteolytic activity was 15% and 85% inhibited by PMSF and ortho-phenanthroline. respectively, attesting that serine and metalloproteases were secreted by T. rubrum. […] In addition, a high activity on substrates such as Leu-AMC and Leu-pNA was detected in the T. rubrum culture supernatant.

fuLAP2 = assay type: biochemical, Aspergillus fumigatus; details: inhibitor 40 μM; Leu-MCA substrate
Procedure: as §1

gliadin 33 mer = test: Digestion of gliadin 33 mer (RP-HPLC, ESI-MS); assay type: biochemical, wheat; details: 37° C., 1 mM CoCl2, pH7.2
desMet-G-CSF = test: Digestion of desMet-G-CSF with DPPIV; details: overnight 37° C., E/S 1/20 (w:w)
[4] = test system: gliadin 14 mer PQPQLPYPQPQLPY; assay type: biochemical, wheat; details: 4 h, 37° C., 1 mM CoCl2, pH7.2
[5] = Enzymatic activity of T. rubrum AMPP at various pH values (FIG. 4); assay type: biochemical
Text: FIG. 4 is a graph of the enzymatic activity of T. rubrum AMPP (aminopeptidase P) at various pH values. It appears that AMPP has activity over a broad range of pH values, from pH 6 to 11.

[6] = Enzymatic activity of T. rubrum AMPP at various temperatures (FIG. 5); assay type: biochemical
Text: FIG. 5 is a graph of the enzymatic activity of T. rubrum AMPP at various temperatures.

Chain of ruLAP2 (Q5QHG6 22-495): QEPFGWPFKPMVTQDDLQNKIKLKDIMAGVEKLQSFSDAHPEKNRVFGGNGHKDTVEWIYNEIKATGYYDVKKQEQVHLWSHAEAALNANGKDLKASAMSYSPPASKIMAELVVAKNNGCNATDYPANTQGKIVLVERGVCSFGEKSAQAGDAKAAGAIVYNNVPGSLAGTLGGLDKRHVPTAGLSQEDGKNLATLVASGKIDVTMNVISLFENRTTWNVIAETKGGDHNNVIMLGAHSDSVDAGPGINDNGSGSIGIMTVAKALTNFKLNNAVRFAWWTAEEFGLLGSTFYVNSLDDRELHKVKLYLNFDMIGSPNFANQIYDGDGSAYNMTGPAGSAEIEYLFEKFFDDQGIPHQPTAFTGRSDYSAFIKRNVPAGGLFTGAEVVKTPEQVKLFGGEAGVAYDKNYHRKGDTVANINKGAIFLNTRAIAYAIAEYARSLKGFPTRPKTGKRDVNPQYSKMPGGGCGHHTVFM
Chain of fuLAP1 (Q5VJG6 15-388, looked up, natural form): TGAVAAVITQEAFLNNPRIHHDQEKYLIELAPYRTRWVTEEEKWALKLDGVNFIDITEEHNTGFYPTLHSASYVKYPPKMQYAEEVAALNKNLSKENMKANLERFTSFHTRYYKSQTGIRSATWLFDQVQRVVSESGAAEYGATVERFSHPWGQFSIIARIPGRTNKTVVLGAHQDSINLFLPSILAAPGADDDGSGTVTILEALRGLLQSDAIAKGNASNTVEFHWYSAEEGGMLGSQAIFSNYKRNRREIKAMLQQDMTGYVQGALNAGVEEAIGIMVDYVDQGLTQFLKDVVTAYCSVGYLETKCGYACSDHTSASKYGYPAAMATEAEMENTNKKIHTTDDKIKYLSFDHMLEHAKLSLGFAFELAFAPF
Chain of ruLAP1 (Q5QHG5 19-373): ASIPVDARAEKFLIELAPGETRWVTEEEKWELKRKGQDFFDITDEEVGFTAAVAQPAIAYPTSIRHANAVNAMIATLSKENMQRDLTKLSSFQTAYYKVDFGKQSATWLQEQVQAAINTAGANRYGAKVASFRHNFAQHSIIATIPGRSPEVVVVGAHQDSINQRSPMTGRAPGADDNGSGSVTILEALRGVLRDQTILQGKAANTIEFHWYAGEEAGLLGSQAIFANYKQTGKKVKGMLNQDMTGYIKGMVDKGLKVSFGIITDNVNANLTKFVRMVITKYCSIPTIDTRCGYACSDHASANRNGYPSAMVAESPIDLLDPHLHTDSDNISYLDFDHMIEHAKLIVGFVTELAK

O=S(=O)(F)Cc1ccccc1 [PMSF]
pkLAP hydrolytic activity, percentage of control without inhibitor [1]: 58% | ruLAP1 hydrolytic activity, percentage of control without inhibitor (ruLAP1): 78% | ruLAP2 hydrolytic activity, percentage of control without inhibitor (ruLAP2): 79% | effect of inhibitor on all the LAPs tested [2]: no clear inhibitory effects | fuLAP1 hydrolytic activity, percentage of control without inhibitor (fuLAP1): 156% | inhibition of proteolytic activity [3]: 15% | fuLAP2 hydrolytic activity, percentage of control without inhibitor (fuLAP2): 84%

ruDPPIV: T. rubrum dipeptidylpeptidase IV, 775 amino acid residues (SEQ ID NO: 35)
digestion of the 33 mer (gliadin 33 mer): not a substrate | cleavage of N-terminal dipeptide from desMet-G-CSF (desMet-G-CSF): Traces of undigested material are still present | digestion of the 14 mer [4]: not able to hydrolyse the peptide

B1: AMPP: T. rubrum aminopeptidase P (SEQ ID NO: 24) (protein, listed as Trichophyton rubrum)
chain: MPPPPVDTTQRLAKLRELMAQNKVDVYIVPSEDSHQSEYIAPCDGRRAFISSFTGSAGCAIVSMSKAALSTDGRYFSQAAKQLDANWILLKRGVEGVPTWEEWTAEQAETRQGCGSDARKLSQTLKTTGGSLVGIDQNLIDAVWGDERPARPANQITVQPVERAGKSFEEKVEDLRKELTAKKRSAMVISSKFLYKWYLSLYTKSHADWCSIPYNPVFFSYAIVTPSVAELYVDESKLSPEARKHLEGKVVLKPYESIFQASKVLAESKASASSGSSGKFLLSNKASWSLSLALGGEQNVVEVRSPITDAKAIKNEVELEGFRKCHIRDGAALIEYFAWLENALIKEGAKLDEVDGADKLFEIRKKYDLFVGNSFDTISSTGANGATIHYKPEKSTCAIIDPKAMYLCDSGGQYLDGTTDTTRTLHFGEPTEFQKKAYALVLKGHISIDNAIFPKGTTGYAIDSFARQHLWKEGLDYLHGTGHGVGSFLNVHEGPMGIGSRAQYAEVPLSASNSLDIMKTATSAFVSRVSSMTAYSSFFILTASLDLVICKEVQTAHKFGDKPFLGFESITLVPFCQKLLDASLLTEAERKWVNDYHAKVWEKTSPFFEKDELTTAWLKRETQPI
pH range of activity [5]: 6 to 11 pH | optimal temperature [6]: 50 C | temperature range of activity [6]: 25 to 60 C
